From patent publication US9730871B2, “Antiperspirant/deodorant cosmetic compositions” (Colgate-Palmolive Company, priority 2012, dated 2017)

System: staphylococcus hemolyticus
Assay: Growth of underarm bacteria on agar plates coated with stick formulation, colony count
Type: cell-based
Conditions: for Bacteria count: 37° C., 16 hours, 0% control count 172; for Effect on growth / colony formation of staphylococcus hemolyticus (in words): sticks with 5-15% lauric acid coated on agar
Protocol: Four simplified stick compositions, each comprising 20% stearyl alcohol gellant and 0%, 5%, 10% and 15% lauric acid, respectively, were prepared. Stearyl alcohol is not considered to be an antibacterial agent. The remainder of each stick consisted of C12-C15 alkyl benzoates, which are synthetic emollients with no antibacterial activity.
A thin layer of each formulation was coated onto an agar plate, by moving the stick across the surface of the plate. A solution of staphylococcus hemolyticus bacteria at 0.1 optical density as measured by UV spectroscopy was diluted by a factor of 40. […] of the bacterial solution was then applied to the agar plate. The plate was incubated at 37° C. for 16 hours. The number of colonies formed on each plate was then recorded.

In the case of `CCCCCCCCCCCC(=O)O` [Laurie acid, lauric acid], the Bacteria count (5% lauric acid in stick with 20% stearyl alcohol and C12-C15 alkyl benzoates) is reported as 120, the Bacteria count (10% lauric acid in stick with 20% stearyl alcohol and C12-C15 alkyl benzoates) is reported as 102 and the Bacteria count (15% lauric acid in stick with 20% stearyl alcohol and C12-C15 alkyl benzoates) is reported as 49. The “Effect on growth / colony formation of staphylococcus hemolyticus (in words)” value was “inhibit the growth” and the “Effect on growth / colony formation of staphylococcus hemolyticus (in words)” value (listed as lauric acid) was “reduction on the number of bacterial colonies formed”.
